Laboratory results published in the supplement of paper PMC5908809.

Key:
SNK-6 (IL-2 2.5 ng/mL) [1] = test: relative IC50 (inflection point of fitted viability curve, relative to fitted max inhibition); higher = less sensitive; conditions: 72 h
Procedure: (§1)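 Drug sensitivity and resistance testing: 5 concentrations over a 10,000-fold range, 72 h at 37 °C, viability by CellTiter-Glo normalised to DMSO and benzethonium chloride controls. IC50 is the inflection point of a logistic fit (min fixed at 0, max fitted), so it is relative to the fitted maximal inhibition. Kept only where fitted max inhibition is at least 50%.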

[2] = tested on: normal NK cells expanded with K562-aAPC; test: percent inhibition of viability; higher = more inhibition; conditions: 72 h, IL-2 2.5 ng/mL
Procedure: (§2)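 Drug sensitivity and resistance testing on K562-aAPC-expanded normal NK cells: 5 concentrations (10-fold steps over a 10,000-fold range), 72 h at 37 °C, viability by CellTiter-Glo normalised to DMSO and benzethonium chloride controls; DSS from the fitted curve.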

DERL-7 (IL-2 2.5 ng/mL) [3] = test: as above; conditions: 72 h
IMC-1 (IL-2 20 ng/mL) [4] = test: as above; conditions: 72 h
KAI3 (IL-2 2.5 ng/mL) [5] = test: as above; conditions: 72 h
KHYG-1 (IL-2 2.5 ng/mL) [6] = test: as above; conditions: 72 h
NK-92 (IL-2 2.5 ng/mL) [7] = test: as above; conditions: 72 h
NK-YS (IL-2 2.5 ng/mL) [8] = test: as above; conditions: 72 h
NKL (IL-2 2.5 ng/mL) [9] = test: as above; conditions: 72 h
SNK-6 (IL-2 2.5 ng/mL) [10] = test: as above; conditions: 72 h
YT (IL-2 2.5 ng/mL) [11] = test: as above; conditions: 72 h
[12] = tested on: normal primary NK cells, pool 1 (3 donors) (IL-2 2.5 ng/mL); test: as above; conditions: 72 h
[13] = tested on: normal primary NK cells, pool 1 (3 donors), resting (IL-2 0 ng/mL); test: as above; conditions: 72 h
[14] = tested on: normal primary NK cells, pool 2 (3 donors) (IL-2 2.5 ng/mL); test: as above; conditions: 72 h
[15] = tested on: normal primary NK cells, pool 3 (3 donors) (IL-2 2.5 ng/mL); test: as above; conditions: 72 h
[16] = tested on: normal NK cells expanded with K562-aAPC; test: drug sensitivity score (DSS) (DSS units); higher = more sensitive; extreme values may be limits of the assay; conditions: 72 h; IL-2 2.5 ng/mL
Procedure: as §2

DERL-7 (IL-2 2.5 ng/mL) [17] = test: as above; conditions: 72 h
IMC-1 (IL-2 20 ng/mL) [18] = test: as above; conditions: 72 h
KAI3 (IL-2 2.5 ng/mL) [19] = test: as above; conditions: 72 h
KHYG-1 (IL-2 2.5 ng/mL) [20] = test: as above; conditions: 72 h
NK-92 (IL-2 2.5 ng/mL) [21] = test: as above; conditions: 72 h
NK-YS (IL-2 2.5 ng/mL) [22] = test: as above; conditions: 72 h
NKL (IL-2 2.5 ng/mL) [23] = test: as above; conditions: 72 h
SNK-6 (IL-2 2.5 ng/mL) [24] = test: as above; conditions: 72 h
YT (IL-2 2.5 ng/mL) [25] = test: as above; conditions: 72 h
[26] = tested on: normal primary NK cells, pool 1 (3 donors) (IL-2 2.5 ng/mL); test: as above; conditions: 72 h
[27] = tested on: normal primary NK cells, pool 1 (3 donors), resting (IL-2 0 ng/mL); test: as above; conditions: 72 h
[28] = tested on: normal primary NK cells, pool 2 (3 donors) (IL-2 2.5 ng/mL); test: as above; conditions: 72 h
[29] = tested on: normal primary NK cells, pool 3 (3 donors) (IL-2 2.5 ng/mL); test: as above; conditions: 72 h
IMC-1 (IL-2 20 ng/mL) [30] = test: relative IC50 (inflection point of fitted viability curve, relative to fitted max inhibition); higher = less sensitive; conditions: 72 h
Procedure: as §1

KAI3 (IL-2 2.5 ng/mL) [31] = test: as above; conditions: 72 h
Procedure: as §1

KHYG-1 (IL-2 2.5 ng/mL) [32] = test: as above; conditions: 72 h
Procedure: as §1

Nc1nc(N)c2nc(-c3cccc(O)c3)c(-c3cccc(O)c3)nc2n1 [TG100-115]
relative IC50 (SNK-6 (IL-2 2.5 ng/mL) [1]): 132 nM

COCC[n+]1c2c(n(Cc3cnccn3)c1C)C(=O)c1ccccc1C2=O [YM155] (max concentration tested 10000 nM)
percent inhibition of viability ([2]; 1 nM): -6.82%
percent inhibition of viability ([2]; 10 nM): 3.02%
percent inhibition of viability ([2]; 100 nM): 36.7%
percent inhibition of viability ([2]; 1000 nM): 96.8%
percent inhibition of viability ([2]; 10000 nM): 100%
percent inhibition of viability (DERL-7 (IL-2 2.5 ng/mL) [3]; 1 nM): 7.39%
percent inhibition of viability (DERL-7 (IL-2 2.5 ng/mL) [3]; 10 nM): 49.9%
percent inhibition of viability (DERL-7 (IL-2 2.5 ng/mL) [3]; 100 nM): 100%
percent inhibition of viability (DERL-7 (IL-2 2.5 ng/mL) [3]; 1000 nM): 101%
percent inhibition of viability (DERL-7 (IL-2 2.5 ng/mL) [3]; 10000 nM): 100%
percent inhibition of viability (IMC-1 (IL-2 20 ng/mL) [4]; 1 nM): 65.3%
percent inhibition of viability (IMC-1 (IL-2 20 ng/mL) [4]; 10 nM): 99.4%
percent inhibition of viability (IMC-1 (IL-2 20 ng/mL) [4]; 100 nM): 100%
percent inhibition of viability (IMC-1 (IL-2 20 ng/mL) [4]; 1000 nM): 101%
percent inhibition of viability (IMC-1 (IL-2 20 ng/mL) [4]; 10000 nM): 100%
percent inhibition of viability (KAI3 (IL-2 2.5 ng/mL) [5]; 1 nM): 8.21%
percent inhibition of viability (KAI3 (IL-2 2.5 ng/mL) [5]; 10 nM): 49.4%
percent inhibition of viability (KAI3 (IL-2 2.5 ng/mL) [5]; 100 nM): 93.5%
percent inhibition of viability (KAI3 (IL-2 2.5 ng/mL) [5]; 1000 nM): 106%
percent inhibition of viability (KAI3 (IL-2 2.5 ng/mL) [5]; 10000 nM): 103%
percent inhibition of viability (KHYG-1 (IL-2 2.5 ng/mL) [6]; 1 nM): 2.01%
percent inhibition of viability (KHYG-1 (IL-2 2.5 ng/mL) [6]; 10 nM): 20.5%
percent inhibition of viability (KHYG-1 (IL-2 2.5 ng/mL) [6]; 100 nM): 102%
percent inhibition of viability (KHYG-1 (IL-2 2.5 ng/mL) [6]; 1000 nM): 106%
percent inhibition of viability (KHYG-1 (IL-2 2.5 ng/mL) [6]; 10000 nM): 102%
percent inhibition of viability (NK-92 (IL-2 2.5 ng/mL) [7]; 1 nM): -8.35%
percent inhibition of viability (NK-92 (IL-2 2.5 ng/mL) [7]; 10 nM): 27.6%
percent inhibition of viability (NK-92 (IL-2 2.5 ng/mL) [7]; 100 nM): 93.5%
percent inhibition of viability (NK-92 (IL-2 2.5 ng/mL) [7]; 1000 nM): 105%
percent inhibition of viability (NK-92 (IL-2 2.5 ng/mL) [7]; 10000 nM): 102%
percent inhibition of viability (NK-YS (IL-2 2.5 ng/mL) [8]; 1 nM): 0.18%
percent inhibition of viability (NK-YS (IL-2 2.5 ng/mL) [8]; 10 nM): 29%
percent inhibition of viability (NK-YS (IL-2 2.5 ng/mL) [8]; 100 nM): 97.7%
percent inhibition of viability (NK-YS (IL-2 2.5 ng/mL) [8]; 1000 nM): 107%
percent inhibition of viability (NK-YS (IL-2 2.5 ng/mL) [8]; 10000 nM): 103%
percent inhibition of viability (NKL (IL-2 2.5 ng/mL) [9]; 1 nM): 10.2%
percent inhibition of viability (NKL (IL-2 2.5 ng/mL) [9]; 10 nM): 90.5%
percent inhibition of viability (NKL (IL-2 2.5 ng/mL) [9]; 100 nM): 104%
percent inhibition of viability (NKL (IL-2 2.5 ng/mL) [9]; 1000 nM): 108%
percent inhibition of viability (NKL (IL-2 2.5 ng/mL) [9]; 10000 nM): 102%
percent inhibition of viability (SNK-6 (IL-2 2.5 ng/mL) [10]; 1 nM): 8.28%
percent inhibition of viability (SNK-6 (IL-2 2.5 ng/mL) [10]; 10 nM): 13.1%
percent inhibition of viability (SNK-6 (IL-2 2.5 ng/mL) [10]; 100 nM): 85.6%
percent inhibition of viability (SNK-6 (IL-2 2.5 ng/mL) [10]; 1000 nM): 98.6%
percent inhibition of viability (SNK-6 (IL-2 2.5 ng/mL) [10]; 10000 nM): 100%
percent inhibition of viability (YT (IL-2 2.5 ng/mL) [11]; 1 nM): 5.75%
percent inhibition of viability (YT (IL-2 2.5 ng/mL) [11]; 10 nM): 59.2%
percent inhibition of viability (YT (IL-2 2.5 ng/mL) [11]; 100 nM): 102%
percent inhibition of viability (YT (IL-2 2.5 ng/mL) [11]; 1000 nM): 106%
percent inhibition of viability (YT (IL-2 2.5 ng/mL) [11]; 10000 nM): 102%
percent inhibition of viability ([12]; 1 nM): -4.81%
percent inhibition of viability ([12]; 10 nM): -8.82%
percent inhibition of viability ([12]; 100 nM): 20.6%
percent inhibition of viability ([12]; 1000 nM): 54.2%
percent inhibition of viability ([12]; 10000 nM): 100%
percent inhibition of viability ([13]; 1 nM): -2.05%
percent inhibition of viability ([13]; 10 nM): -12.4%
percent inhibition of viability ([13]; 100 nM): 35.7%
percent inhibition of viability ([13]; 1000 nM): 79.2%
percent inhibition of viability ([13]; 10000 nM): 98.8%
percent inhibition of viability ([14]; 1 nM): -1.75%
percent inhibition of viability ([14]; 10 nM): 4.96%
percent inhibition of viability ([14]; 100 nM): 15.5%
percent inhibition of viability ([14]; 1000 nM): 50.5%
percent inhibition of viability ([14]; 10000 nM): 97.1%
percent inhibition of viability ([15]; 1 nM): -2.28%
percent inhibition of viability ([15]; 10 nM): 1.02%
percent inhibition of viability ([15]; 100 nM): 6.74%
percent inhibition of viability ([15]; 1000 nM): 31.9%
percent inhibition of viability ([15]; 10000 nM): 86.7%
drug sensitivity score [16]: 22
drug sensitivity score (DERL-7 (IL-2 2.5 ng/mL) [17]): 36.2
drug sensitivity score (IMC-1 (IL-2 20 ng/mL) [18]): 48.1
drug sensitivity score (KAI3 (IL-2 2.5 ng/mL) [19]): 35.8
drug sensitivity score (KHYG-1 (IL-2 2.5 ng/mL) [20]): 33.8
drug sensitivity score (NK-92 (IL-2 2.5 ng/mL) [21]): 33.2
drug sensitivity score (NK-YS (IL-2 2.5 ng/mL) [22]): 34.2
drug sensitivity score (NKL (IL-2 2.5 ng/mL) [23]): 42.9
drug sensitivity score (SNK-6 (IL-2 2.5 ng/mL) [24]): 29.9
drug sensitivity score (YT (IL-2 2.5 ng/mL) [25]): 37.6
drug sensitivity score [26]: 12.9
drug sensitivity score [27]: 19.1
drug sensitivity score [28]: 12
drug sensitivity score [29]: 8.63

CC(C)(C)c1cc(NC(=O)Nc2ccc(-c3cn4c(n3)sc3cc(OCCN5CCOCC5)ccc34)cc2)no1 [Quizartinib]
relative IC50 (IMC-1 (IL-2 20 ng/mL) [30]): > 1000 nM
relative IC50 (KAI3 (IL-2 2.5 ng/mL) [31]): 165 nM
relative IC50 (KHYG-1 (IL-2 2.5 ng/mL) [32]): 233 nM
